Test system: 7-week-old shaved C57BL/6J mouse model
Experiment: Hair loss therapy (hair regrowth) in shaved mouse model
Type: in vivo
Protocol: Animal Studies: C57B/6J mice were used in this work and purchased from Jackson Laboratory (Bar Harbor, Me., United States of America). For in vivo therapy studies, the mice were shaved at postnatal day 50, and treated with an HMN patch loaded with exosomes and/or UK5099 at day 1 and day 5 after hair shave. The patch was pressed firmly for the first 5 seconds to penetrate through the epidermis and then pressed softly for an additional 1 minute to make the patch absorb liquid. The patch base was removed at 4 hours post-insertion into the skin. Topical administration of UK5099 (solvent formulation: ethanol/water/propylene glycol=5/3/2), and subcutaneous injection of exosomes were performed every two days, with the dosage same with that of the corresponding HMN patch. Shaved mice without any treatment were adopted as a control. The clinical agent minoxidil was used via topical administration in a concentration of 3%. The time profile of the hair phenotype transformation was obtained by real-time observation of the hair regrowth in mice. The judgement of the hair follicles in telogen, telogen-anagen transition, and anagen was performed according to a method previously described in the literature. See Oh et al., J. Investig. Dermatol. 2016, 136(1), 34-44. […]

For `N#CC(=Cc1cn(-c2ccccc2)c2ccccc12)C(=O)O` [UK5099, 2-cyano-3-(1-phenyl-1H-indol-3-yl)-2-propenoic acid], the “time for HFSCs to enter into anagen (pigmentation and hair regrowth)” value (delivered via HMN patch, two rounds of administration (day 1 and day 5)) was “about 8 days” and the “therapeutic effect reflected by the hair covered area” value (topical administration, seven treatments, compared with HMN administration) was “inferior therapeutic effect”.

From patent publication US20210161968A1, “USE OF MICRONEEDLE PATCH TO PROMOTE HAIR GROWTH” (North Carolina State University, priority 2018, published 2021)
